Values joined by “and” are separate entries in the source; they are usually repeats but may differ in a detail not shown here. Equal values may be shown once.
Assays:
α4β2 nicotinic receptor [1] = target: T1, α4β2 nicotinic receptor (Homo sapiens, UniProt P17787+P43681); assay: Two-electrode voltage-clamp recording of ACh-induced currents in X. laevis oocytes expressing recombinant α4β2 nicotinic receptor; assay type: cell-based
T1 construct: expressed in transfected cells; host or cells: Xenopus laevis oocytes (nuclear cDNA injection)
T1 sequence (P43681 29-627 limits assumed): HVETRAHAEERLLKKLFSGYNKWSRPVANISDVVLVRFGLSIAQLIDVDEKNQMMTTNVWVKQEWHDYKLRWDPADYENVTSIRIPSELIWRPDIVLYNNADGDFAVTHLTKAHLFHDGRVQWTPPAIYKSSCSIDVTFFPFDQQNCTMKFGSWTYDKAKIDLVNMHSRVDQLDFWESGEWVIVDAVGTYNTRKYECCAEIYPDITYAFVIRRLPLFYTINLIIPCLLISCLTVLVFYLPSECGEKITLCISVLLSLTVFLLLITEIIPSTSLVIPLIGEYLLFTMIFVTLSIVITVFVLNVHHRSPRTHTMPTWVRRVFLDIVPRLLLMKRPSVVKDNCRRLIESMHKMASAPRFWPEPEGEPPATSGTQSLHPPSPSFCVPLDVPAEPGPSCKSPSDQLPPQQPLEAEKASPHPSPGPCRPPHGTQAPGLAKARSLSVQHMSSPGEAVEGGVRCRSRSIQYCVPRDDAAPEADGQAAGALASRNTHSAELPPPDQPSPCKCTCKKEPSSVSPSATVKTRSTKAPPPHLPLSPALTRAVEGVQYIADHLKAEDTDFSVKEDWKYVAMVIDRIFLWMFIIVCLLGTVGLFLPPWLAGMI
T1 sequence (P17787 26-502): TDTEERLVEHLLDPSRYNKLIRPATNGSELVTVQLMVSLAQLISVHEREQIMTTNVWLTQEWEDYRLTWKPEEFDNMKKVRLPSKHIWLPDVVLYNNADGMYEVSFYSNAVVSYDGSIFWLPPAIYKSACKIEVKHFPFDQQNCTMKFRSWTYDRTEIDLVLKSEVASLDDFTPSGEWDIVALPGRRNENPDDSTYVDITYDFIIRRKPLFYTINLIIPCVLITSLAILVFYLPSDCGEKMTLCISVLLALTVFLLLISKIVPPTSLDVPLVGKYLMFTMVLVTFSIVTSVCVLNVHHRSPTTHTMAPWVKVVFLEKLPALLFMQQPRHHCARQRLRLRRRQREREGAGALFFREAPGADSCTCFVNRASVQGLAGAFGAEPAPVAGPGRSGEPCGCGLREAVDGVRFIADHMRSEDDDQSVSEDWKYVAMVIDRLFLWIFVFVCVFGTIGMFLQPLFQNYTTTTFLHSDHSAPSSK
Method: (§1) Figure 1 Inhibitory effect of (-)-231C on ACh-induced currents in X. laevis oocytes expressing recombinant nicotinic receptors. Currents were recorded in the voltage-clamp mode at -60 mV. Concentrations of ACh used were 1 μM for the α4β2 receptor and 100 μM for the α7 receptor. For test responses, oocytes were preincubated with (-)-231C for 3 min and then exposed to ACh with (-)-231C. A, representative traces showing the ACh-elicited currents in the absence and presence of (-)-231C (3 μM). Horizontal bars indicate the period of perfusion with ACh for 5 s. Vertical scale bars represent 0.5 μA on the α4β2 receptor, and 0.1 μA on the α7 receptor. B, concentration-response curves for (-)-231C on recombinant nicotinic receptors. Current responses to ACh in the presence of (-)-231C in each oocyte were normalized to the ACh responses (control responses) recorded in the same oocytes. Values represent the mean ± S.E.M. for five to six separate experiments.
as §1, with “Figure 2” for “Figure 1”, “of (-)-221I” for “of (-)-231C”, “with (-)-221I” for “with (-)-231C”, “with (-)-221I.” for “with (-)-231C.”, “for (-)-221I” for “for (-)-231C”, “five” for “five to six”
as §1, with “Figure 3” for “Figure 1”, “of (-)-epi-193E” for “of (-)-231C”, “with (-)-epi-193E” for “with (-)-231C”, “with (-)-epi-193E.” for “with (-)-231C.”, “for (-)-epi-193E” for “for (-)-231C”, “five” for “five to six”
(§2) Xenopus laevis oocytes were prepared as described previously. In brief, stage V-VI oocytes were isolated and microinjected with cDNAs encoding nicotinic receptor subunit into the nucleus. The α7 subunit cDNA was injected alone, whereas the mixture of α4 and β2 subunit cDNAs was injected in a ratio of 1:1. Oocytes were cultured at 19 °C for 3-7 days. An oocyte was placed in a tube-like chamber in which Ringer’s solution (82.5 mM NaCl, 2.5 mM KCl, 2.5 mM CaCl2, 1 mM MgCl2, and 5 mM HEPES, pH 7.4) containing 1 µM atropine was perfused by gravity (15 ml/min). Current responses were recorded under two-electrode voltage-clamp method. To apply a pulse of acetylcholine (ACh) to the oocyte, the perfusion fluid was switched to solution containing ACh, using a three-way Teflon solenoid valve (Parker Hannifin Corp., General Valve Division, Fairfield, NJ) controlled by a PC computer with pClamp7 software (Axon Instruments, Union City, CA). […]

α7 nicotinic receptor = target: T2, α7 nicotinic receptor (Homo sapiens, UniProt P36544); assay: Two-electrode voltage-clamp recording of ACh-induced currents in X. laevis oocytes expressing recombinant α7 nicotinic receptor; assay type: cell-based; conditions: for fold higher potency for blockade of α7 than of α4β2 receptor: ratio of IC50 values, α7 over α4β2
T2 construct: expressed in transfected cells; host or cells: Xenopus laevis oocytes (nuclear cDNA injection)
T2 sequence (P36544 23-502): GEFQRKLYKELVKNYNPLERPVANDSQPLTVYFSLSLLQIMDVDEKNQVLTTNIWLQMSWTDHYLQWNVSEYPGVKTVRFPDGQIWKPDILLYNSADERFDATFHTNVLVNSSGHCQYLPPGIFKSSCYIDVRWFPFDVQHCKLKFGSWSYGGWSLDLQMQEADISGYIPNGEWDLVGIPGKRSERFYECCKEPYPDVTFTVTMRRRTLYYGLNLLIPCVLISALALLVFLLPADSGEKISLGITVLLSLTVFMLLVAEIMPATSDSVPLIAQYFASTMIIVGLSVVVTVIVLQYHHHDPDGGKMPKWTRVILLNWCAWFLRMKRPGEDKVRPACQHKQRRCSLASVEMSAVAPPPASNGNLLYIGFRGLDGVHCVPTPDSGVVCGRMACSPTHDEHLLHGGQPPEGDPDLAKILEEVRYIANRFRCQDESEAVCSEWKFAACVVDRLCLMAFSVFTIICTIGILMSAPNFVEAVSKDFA
Method: as §1
as §1, with “Figure 2” for “Figure 1”, “of (-)-221I” for “of (-)-231C”, “with (-)-221I” for “with (-)-231C”, “with (-)-221I.” for “with (-)-231C.”, “for (-)-221I” for “for (-)-231C”, “five” for “five to six”
as §1, with “Figure 3” for “Figure 1”, “of (-)-epi-193E” for “of (-)-231C”, “with (-)-epi-193E” for “with (-)-231C”, “with (-)-epi-193E.” for “with (-)-231C.”, “for (-)-epi-193E” for “for (-)-231C”, “five” for “five to six”
as §2

[2] = tested on: nicotinic acetylcholine receptors; set-up: method as in PMID 1815137; conditions: cited from earlier work
α4β2 nicotinic receptor [3] = target: T1, α4β2 nicotinic receptor; set-up: method as in PMID 15258256; conditions: cited from earlier work

Compound	IC50 (α4β2 nicotinic receptor [1])	IC50 (α7 nicotinic receptor)	fold higher potency for blockade of α7 than of α4β2 receptor (α7 nicotinic receptor)	mode of action at nicotinic receptors [2]	other results
CCC=CCC1CCC(CC)C2CCCN12 (single isomer, unassigned; (-)) [(-)-221I]	23.1 µM	4.4 µM	5.3 fold		
C#C/C=C\CCC[C@@H]1CC[C@@H](C)[C@@H]2CCCN12 [(-)-231C, (5R,8R,9S)-(-)-5-Hept-4-en-6-ynyl-8-methyloctahydroindolizine]	1.5 µM	10.7 µM			peak amplitude of ACh-elicited currents (α4β2 nicotinic receptor [1]; 3 μM compound, oocytes expressing α4β2 receptor): greatly decreased; fold higher sensitivity/potency for blockade of α4β2 than of α7 receptor (α4β2 nicotinic receptor [1]; ratio of IC50 values, α4β2 over α7): 7.0 fold and 6- to 7 fold; ACh-elicited responses (α7 nicotinic receptor; 3 μM compound, oocytes expressing α7 receptor): not strongly affected
CCCCC[C@@H]1CC[C@@H](C)[C@@H]2CCCN12 [(-)-209B, (5S,8R,9S)-(-)-8-Methyl-5-pentyloctahydroindolizine]				noncompetitive nicotinic blockers	
C=CCC1CCC(CC)C2CCCN12 (single isomer, unassigned; (-)) [(-)-epi-193E]	18 µM	9.1 µM	2.0 fold		
CC/C=C\CCC[C@@H]1CC[C@@H](C)[C@@H]2CCCN12 [(-)-235B", (5R,8R,9S)-(-)-5-Hept-4-enyl-8-methyloctahydroindolizine]				noncompetitive nicotinic blockers	potency in blocking the α4β2 receptor relative to (-)-231C (α4β2 nicotinic receptor [1]; fold greater than (-)-231C, previous (ref 3) versus present data): approximately 20 fold; selectivity for blockade of α4β2 over α7 receptor (α4β2 nicotinic receptor [3]; previous data): 6- to 7 fold; effect at the α4β2 nicotinic receptor (α4β2 nicotinic receptor [3]; several nicotinic receptor subtypes tested): selective and potent blocking effects; potency at α4β2 receptor compared with dihydro-β-erythroidine (α4β2 nicotinic receptor [3]; versus classical α4β2 competitive antagonist): comparable

Source: paper PMC2164953, “Flexible synthesis of poison-frog alkaloids of the 5,8-disubstituted indolizidine-class. II: Synthesis of (-)-209B, (-)-231C, (-)-233D, (-)-235B", (-)-221I, and an epimer of 193E and pharmacological effects at neuronal nicotinic acetylcholine receptors” (Beilstein Journal of Organic Chemistry, 2007)
